This note sets out measurements from ChEMBL document CHEMBL1154668, “Design and synthesis of 6-oxo-1,6-dihydropyridines as CDK5 inhibitors” (Bioorg Med Chem Lett, 2009).

SMILES strings stand for the structures.

For data set [1], the target named is Cyclin-dependent kinase 5/CDK5 activator 1 (Homo sapiens, UniProt Q00535). Description: Inhibition of human CDK5/p25 assessed as histone h1 phosphorylation in presence of ATP. It counts as protein-complex assay.
For another data set, the species on record is Homo sapiens. As to the kind of experiment: Selectivity for human CDK5/p25 over human CDK2/cyclin E2.
The next data set relates to Brain. As to the kind of experiment: Drug uptake in rat brain at 2 mg/kg, iv. It is filed as ADME, organism-based. Details: dose 2 mg/kg, route intravenous. Particulars: in vivo.

Sequence of Cyclin-dependent kinase 5/CDK5 activator 1 (Q00535 whole entry): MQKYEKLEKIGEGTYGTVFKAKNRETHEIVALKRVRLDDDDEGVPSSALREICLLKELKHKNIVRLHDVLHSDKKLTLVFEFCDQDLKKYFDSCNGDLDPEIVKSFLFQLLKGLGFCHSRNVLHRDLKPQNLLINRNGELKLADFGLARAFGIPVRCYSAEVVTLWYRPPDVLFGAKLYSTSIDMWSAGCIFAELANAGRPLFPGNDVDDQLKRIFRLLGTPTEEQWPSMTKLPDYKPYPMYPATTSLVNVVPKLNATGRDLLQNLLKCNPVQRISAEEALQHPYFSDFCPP
Sequence of Cyclin-dependent kinase 5/CDK5 activator 1 (Q15078 whole entry, further chain): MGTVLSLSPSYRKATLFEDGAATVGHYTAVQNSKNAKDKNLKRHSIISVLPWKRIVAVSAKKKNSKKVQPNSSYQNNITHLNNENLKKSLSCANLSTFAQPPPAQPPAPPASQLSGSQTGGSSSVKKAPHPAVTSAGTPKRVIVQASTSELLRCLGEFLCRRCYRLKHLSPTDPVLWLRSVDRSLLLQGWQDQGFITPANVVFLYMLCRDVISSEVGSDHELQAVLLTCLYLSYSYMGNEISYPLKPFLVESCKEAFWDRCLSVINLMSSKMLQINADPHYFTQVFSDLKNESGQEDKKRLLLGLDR

As for `CCOC(=O)c1cc(-c2csc(-c3ccncc3)n2)c(=O)[nH]c1C`, the IC50 (as a rule, the concentration at which inhibition is half-maximal) in data set [1] was 131 nM.
The same measure, in the same setting: in the case of `CCOC(=O)c1cc(-c2csc(-c3ccnc(Cl)c3)n2)c(=O)[nH]c1C` it was 160 nM; in that of `CCOC(=O)c1cc(-c2csc(-c3ccnc(NCC(C)C)c3)n2)c(=O)[nH]c1C`, 14 nM; in that of `CCOC(=O)c1cc(-c2csc(-c3ccncc3)n2)c(=O)[nH]c1C1CC1`, 198 nM.
Still for that read-out and setting: in the case of `CCOC(=O)c1cc(-c2csc(-c3ccncc3)n2)c(=O)[nH]c1COCc1ccccc1` it was 779 nM.
Still for that read-out and setting: in the case of `CCOC(=O)c1cc(-c2csc(-c3ccncc3)n2)c(=O)[nH]c1CC` it was 4.1 nM; in that of `CC(C)c1[nH]c(=O)c(-c2csc(-c3ccncc3)n2)cc1C(=O)OC1CCN(C)CC1`, 647 nM; in that of `CCOC(=O)c1cc(-c2csc(-c3ccnc(OC)c3)n2)c(=O)[nH]c1C(C)C`, 672 nM.
For `CC(C)c1[nH]c(=O)c(-c2csc(-c3ccncc3)n2)cc1C(=O)OC1CCCN(C)C1` (stereo not drawn), the IC50 in data set [1] came out at 73 nM.
Same read-out and setting: in the case of `CCOC(=O)c1cc(-c2csc(-c3ccnc(N)c3)n2)c(=O)[nH]c1C` it was 20 nM.
In the data set filed under Homo sapiens, `CCOC(=O)c1cc(-c2csc(CS(=O)(=O)c3ccccc3)n2)c(=O)[nH]c1COCc1ccccc1` gave a fold change (FC) of 70. The IC50 in data set [1] came out at 5.3 nM.
In the case of `CCOC(=O)c1cc(-c2csc(-c3ccnc(NC)c3)n2)c(=O)[nH]c1C(C)C`, in data set [1], the IC50 was 28 nM.
Turning to `CCN(CC)CCOC(=O)c1cc(-c2csc(-c3ccncc3)n2)c(=O)[nH]c1C(C)C`, the IC50 in data set [1] worked out at 53 nM.
For the compound `CCN(CC)CC(C)OC(=O)c1cc(-c2csc(-c3ccncc3)n2)c(=O)[nH]c1C(C)C` (stereo not drawn), the IC50 in data set [1] amounted to 36 nM.
Consider `CCN(CC)CCCOC(=O)c1cc(-c2csc(-c3ccncc3)n2)c(=O)[nH]c1C(C)C`, for which the IC50 in data set [1] was found to be 47 nM.
In the data set listed under Homo sapiens, `CCOC(=O)c1cc(-c2csc(CS(=O)(=O)c3ccccc3)n2)c(=O)[nH]c1C` had a fold change (FC) of 70. Besides, the Drug uptake in the data set on Brain was found to be 44 ng/g. In data set [1], the IC50 came to 3.3 nM.
As for `CCCc1[nH]c(=O)c(-c2csc(-c3ccncc3)n2)cc1C(=O)OCC`, the 50% inhibitory concentration (IC50) in data set [1] worked out at 55 nM.
Same read-out and setting: in the case of `CC(C)c1[nH]c(=O)c(-c2csc(-c3ccncc3)n2)cc1C(=O)OCCc1ccccc1` it was 119 nM; in that of `CCOC(=O)c1cc(-c2csc(-c3ccnc(NCCN(CC)CC)c3)n2)c(=O)[nH]c1C`, 139 nM; in that of `CC(C)c1[nH]c(=O)c(-c2csc(-c3ccncc3)n2)cc1C(=O)OCCN1CCCC1`, 112 nM.
With `CCOC(=O)c1cc(-c2csc(-c3ccncc3)n2)c(=O)[nH]c1C(F)(F)F`, the IC50 in data set [1] amounted to 11500 nM.
Take `CCOC(=O)c1cc(-c2csc(-c3ccncc3)n2)c(=O)[nH]c1C(C)C`: the Drug uptake with Brain was 4640 ng/g. Besides, in data set [1], the IC50 was 157 nM.
Take `CCCc1[nH]c(=O)c(-c2csc(CS(=O)(=O)c3ccccc3)n2)cc1C(=O)OCC`: the fold change (FC) in the data set filed under Homo sapiens is 70. Also, the IC50 in data set [1] worked out at 1.4 nM.
